Measurements published in PubChem BioAssay AID248 (DTP/NCI, 2004).
“And” between values parts separate entries of the source, which are not always exact repeats. Identical values can stand only once. Inconclusive results and toxic doses are left out.

Tested on: L1210 leukemia ip in BDF1 mice, survival T/C
Assay: NCI In Vivo Anticancer Drug Screen. Data for tumor model L1210 Leukemia (intraperitoneal) in B6D2F1 (BDF1) mice
Settings: endpoint: mean survival time, higher = longer survival
Procedure, shortened: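 Each compound was tested against a transplantable tumor grown in mice. The endpoint was survival, with treated animals benchmarked against vehicle controls as a simple ratio.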

[1] = dose: 100.0 mg/kg/injection, schedule: Q04DX002 (ip), vehicle: Klucel (hydroxypropylcellulose) (HPC)
[2] = dose: 200.0 mg/kg/injection, schedule: Q04DX002 (ip), vehicle: Klucel (hydroxypropylcellulose) (HPC)
[3] = dose: 100.0 mg/kg/injection, schedule: Q04DX003 (ip), vehicle: saline with Tween-80
[4] = dose: 200.0 mg/kg/injection, schedule: Q04DX003 (ip), vehicle: saline with Tween-80
[5] = dose: 400.0 mg/kg/injection, schedule: Q04DX003 (ip), vehicle: saline with Tween-80
[6] = dose: 100.0 mg/kg/injection, schedule: Q01DX001 (ip), vehicle: saline
[7] = dose: 200.0 mg/kg/injection, schedule: Q01DX001 (ip), vehicle: saline
[8] = dose: 400.0 mg/kg/injection, schedule: Q01DX001 (ip), vehicle: saline
[9] = dose: 100.0 mg/kg/injection, schedule: Q01DX001 (ip), vehicle: other
[10] = dose: 200.0 mg/kg/injection, schedule: Q01DX001 (ip), vehicle: other
[11] = dose: 400.0 mg/kg/injection, schedule: Q01DX001 (ip), vehicle: other
[12] = dose: 100.0 mg/kg/injection, schedule: Q04DX003 (ip), vehicle: Klucel (hydroxypropylcellulose) (HPC)
[13] = dose: 200.0 mg/kg/injection, schedule: Q04DX003 (ip), vehicle: Klucel (hydroxypropylcellulose) (HPC)
[14] = dose: 400.0 mg/kg/injection, schedule: Q04DX003 (ip), vehicle: Klucel (hydroxypropylcellulose) (HPC)
[15] = dose: 50.0 mg/kg/injection, schedule: Q01DX001 (ip), vehicle: saline
[16] = dose: 50.0 mg/kg/injection, schedule: Q01DX009 (ip), vehicle: Klucel (hydroxypropylcellulose) (HPC)
[17] = dose: 100.0 mg/kg/injection, schedule: Q01DX009 (ip), vehicle: Klucel (hydroxypropylcellulose) (HPC)
[18] = dose: 200.0 mg/kg/injection, schedule: Q01DX009 (ip), vehicle: Klucel (hydroxypropylcellulose) (HPC)
[19] = dose: 400.0 mg/kg/injection, schedule: Q01DX009 (ip), vehicle: Klucel (hydroxypropylcellulose) (HPC)
[20] = dose: 100.0 mg/kg/injection, schedule: Q01DX009 (ip), vehicle: saline with Tween-80
[21] = dose: 200.0 mg/kg/injection, schedule: Q01DX009 (ip), vehicle: saline with Tween-80
[22] = dose: 400.0 mg/kg/injection, schedule: Q01DX009 (ip), vehicle: saline with Tween-80

In the case of `COc1ccc(OC(=O)Nc2ccccc2C)cc1`, the T/C (dose: 50.0 mg/kg/injection, schedule: Q04DX002 (ip), vehicle: Klucel (hydroxypropylcellulose) (HPC)) is reported as 104 % of control, the T/C [1] is reported as 100 % of control and 101 % of control and the T/C [2] is reported as 101 % of control. The T/C (dose: 400.0 mg/kg/injection, schedule: Q04DX002 (ip), vehicle: Klucel (hydroxypropylcellulose) (HPC)) was 104 % of control and 111 % of control.
In the case of `CCCCSc1cc(NS(=O)(=O)c2ccccc2)ccc1NS(=O)(=O)c1ccccc1`, the T/C [3] is reported as 97 % of control, the T/C [4] is reported as 93 % of control and the T/C [5] is reported as 95 % of control.
With `COC1C=CC(OC)(C(OC)OC)O1` (stereo not drawn) the T/C [6] was 104 % of control, the T/C [7] was 101 % of control and the T/C [8] was 98 % of control.
For `c1ccc(C2=NNC(c3ccccc3)(c3ccccc3)c3ccccc32)cc1`, the T/C [9] was 96 % of control, the T/C [10] was 90 % of control and the T/C [11] was 95 % of control.
With `Cc1cc(=O)oc2cc(OC(=O)Nc3ccc(F)c(Cl)c3)ccc12` the T/C (dose: 3.12 mg/kg/injection, schedule: Q01DX009 (ip), vehicle: Klucel (hydroxypropylcellulose) (HPC)) was 102 % of control, the T/C (dose: 6.25 mg/kg/injection, schedule: Q01DX009 (ip), vehicle: Klucel (hydroxypropylcellulose) (HPC)) was 96 % of control and the T/C (dose: 12.5 mg/kg/injection, schedule: Q01DX009 (ip), vehicle: Klucel (hydroxypropylcellulose) (HPC)) was 93 % of control and 92 % of control. The T/C [12] was 97 % of control, the T/C [13] was 100 % of control and the T/C [14] was 101 % of control.
`Nc1cc(S(=O)(=O)O)cc2cc(S(=O)(=O)O)cc(S(=O)(=O)O)c12` was tested, and the T/C (dose: 100.0 mg/kg/injection, schedule: Q01DX009 (ip), vehicle: saline) was 107 % of control, the T/C (dose: 200.0 mg/kg/injection, schedule: Q01DX009 (ip), vehicle: saline) was 104 % of control and the T/C (dose: 400.0 mg/kg/injection, schedule: Q01DX009 (ip), vehicle: saline) was 100 % of control.
In the case of `O=C(Cc1c[nH]c2ccccc12)N=Nc1c(O)[nH]c2ccccc12`, the T/C [9] is reported as 102 % of control, the T/C [10] is reported as 101 % of control and the T/C [11] is reported as 93 % of control.
`OCC1OC(n2cnc3c(SSc4ncnc5c4ncn5C4OC(CO)C(O)C4O)ncnc32)C(O)C1O` (stereo not drawn) was tested, and the T/C [6] was 95 % of control, the T/C [7] was 106 % of control and the T/C [8] was 121 % of control.
For `C1OC1CN1CCC(C2CCN(CC3CO3)CC2)CC1` (stereo not drawn), the T/C (dose: 0.61 mg/kg/injection, schedule: Q01DX009 (ip), vehicle: saline) was 114 % of control, the T/C (dose: 2.1 mg/kg/injection, schedule: Q01DX009 (ip), vehicle: saline) was 156 % of control and the T/C (dose: 2.9 mg/kg/injection, schedule: Q01DX001 (ip), vehicle: saline) was 121 % of control. For the same compound, the T/C (dose: 3.5 mg/kg/injection, schedule: Q01DX009 (ip), vehicle: saline) was 120 % of control, the T/C (dose: 4.3 mg/kg/injection, schedule: Q01DX001 (ip), vehicle: saline) was 115 % of control and the T/C (dose: 4.4 mg/kg/injection, schedule: Q01DX001 (ip), vehicle: saline) was 159 % of control. The T/C (dose: 6.6 mg/kg/injection, schedule: Q01DX001 (ip), vehicle: saline) was 122 % of control, the T/C (dose: 15.0 mg/kg/injection, schedule: Q01DX001 (ip), vehicle: saline) was 160 % of control and the T/C (dose: 15.0 mg/kg/injection, schedule: Q01DX009 (ip), vehicle: saline) was 150 % of control and 152 % of control. The T/C [15] was 164 % of control, the T/C (dose: 60.0 mg/kg/injection, schedule: Q01DX001 (ip), vehicle: saline) was 156 % of control and the T/C (dose: 60.0 mg/kg/injection, schedule: Q01DX009 (ip), vehicle: saline) was 91 % of control.
`C=CC[N+](CC=C)(CC=C)CCC[N+](CC=C)(CC=C)CC=C` was tested, and the T/C (dose: 12.5 mg/kg/injection, schedule: Q01DX009 (ip), vehicle: water) was 98 % of control, the T/C (dose: 25.0 mg/kg/injection, schedule: Q01DX009 (ip), vehicle: water) was 98 % of control and 101 % of control and the T/C (dose: 50.0 mg/kg/injection, schedule: Q01DX009 (ip), vehicle: water) was 102 % of control and 108 % of control.
`C=CCSc1ccc(Cl)cc1` was tested, and the T/C [6] was 105 % of control and the T/C [7] was 103 % of control.
`CCCCCCCCC(C)NCCOC(=O)c1ccc([N+](=O)[O-])cc1` (stereo not drawn) was tested, and the T/C (dose: 75.0 mg/kg/injection, schedule: Q01DX001 (ip), vehicle: other) was 89 % of control and the T/C (dose: 150.0 mg/kg/injection, schedule: Q01DX001 (ip), vehicle: other) was 89 % of control.
With `CCCCC(CC)CNCC(O)CNCC(CC)CCCC` (stereo not drawn) the T/C [16] was 88 % of control, the T/C [1] was 108 % of control and the T/C [2] was 101 % of control.
`O=C(NC1CCCCC1)N(C1CCCCC1)C1CCCCC1` was tested, and the T/C [17] was 90 % of control, the T/C [18] was 103 % of control and the T/C [19] was 92 % of control.
With `C(/C=N/Nc1cnccn1)=N\Nc1cnccn1` the T/C [17] was 89 % of control, the T/C [18] was 89 % of control and the T/C [19] was 110 % of control.
`O=C1OC2=C(c3ccccc3)C(=O)OC2=C1c1ccccc1` was tested, and the T/C [6] was 97 % of control, the T/C [7] was 104 % of control and the T/C [8] was 95 % of control.
In the case of `COc1ccc(N2C(=O)CCC2=O)cc1`, the T/C [20] is reported as 107 % of control, the T/C [3] is reported as 106 % of control and the T/C [21] is reported as 95 % of control. The T/C [4] was 92 % of control, the T/C [22] was 98 % of control and the T/C [5] was 111 % of control.
With `Cc1ccccc1Nc1ncnc2c1cnn2-c1ccccc1` the T/C [6] was 102 % of control, the T/C [7] was 105 % of control and the T/C [8] was 115 % of control.
For `O=[N+]([O-])c1ccc(C=Nc2cc(Cl)ccc2Cl)s1`, the T/C [3] was 98 % of control and the T/C [4] was 88 % of control.
`COc1ccc(-c2c(C(=O)O)cccc2[N+](=O)[O-])c(OC)c1` was tested, and the T/C (dose: 100.0 mg/kg/injection, schedule: Q01DX003 (ip), vehicle: Klucel (hydroxypropylcellulose) (HPC)) was 98 % of control, the T/C (dose: 200.0 mg/kg/injection, schedule: Q01DX003 (ip), vehicle: Klucel (hydroxypropylcellulose) (HPC)) was 91 % of control and the T/C (dose: 400.0 mg/kg/injection, schedule: Q01DX003 (ip), vehicle: Klucel (hydroxypropylcellulose) (HPC)) was 86 % of control.
In the case of `CC1=C(Cl)C(=O)C(C)=C(Cl)C1=O`, the T/C (dose: 10.0 mg/kg/injection, schedule: Q01DX001 (ip), vehicle: saline) is reported as 90 % of control, the T/C (dose: 20.0 mg/kg/injection, schedule: Q01DX001 (ip), vehicle: saline) is reported as 92 % of control and the T/C (dose: 40.0 mg/kg/injection, schedule: Q01DX001 (ip), vehicle: saline) is reported as 108 % of control.
`Clc1cccc(-c2nc3ccccc3c3ccccc23)c1` was tested, and the T/C [20] was 90 % of control, the T/C [21] was 100 % of control and the T/C [22] was 103 % of control.
`NC1=Nc2ccccc2CS1` was tested, and the T/C (dose: 18.8 mg/kg/injection, schedule: Q04DX003 (ip), vehicle: saline) was 95 % of control and the T/C (dose: 37.5 mg/kg/injection, schedule: Q04DX003 (ip), vehicle: saline) was 101 % of control.
For `O=[N+]([O-])c1ccc(F)cc1F`, the T/C (dose: 22.0 mg/kg/injection, schedule: Q01DX009 (ip), vehicle: Klucel (hydroxypropylcellulose) (HPC)) was 103 % of control, the T/C (dose: 43.7 mg/kg/injection, schedule: Q01DX009 (ip), vehicle: Klucel (hydroxypropylcellulose) (HPC)) was 105 % of control and the T/C (dose: 87.5 mg/kg/injection, schedule: Q01DX009 (ip), vehicle: Klucel (hydroxypropylcellulose) (HPC)) was 97 % of control and 114 % of control.
In the case of `N#CC(Cc1ccccc1)(c1ccccc1)c1ccccc1`, the T/C [15] is reported as 112 % of control, the T/C [6] is reported as 114 % of control and the T/C [7] is reported as 89 % of control. For the same compound, the T/C [8] was 97 % of control.
`O=C(NN1CCOCC1)c1ccc([N+](=O)[O-])s1` was tested, and the T/C (dose: 50.0 mg/kg/injection, schedule: Q01DX005 (ip), vehicle: saline) was 98 % of control, the T/C (dose: 100.0 mg/kg/injection, schedule: Q01DX005 (ip), vehicle: saline) was 102 % of control and the T/C (dose: 200.0 mg/kg/injection, schedule: Q01DX005 (ip), vehicle: saline) was 98 % of control.
`CCOC(=O)c1cc(C=O)oc1C` was tested, and the T/C (dose: 25.0 mg/kg/injection, schedule: Q01DX009 (ip), vehicle: Klucel (hydroxypropylcellulose) (HPC)) was 91 % of control, the T/C [16] was 97 % of control and the T/C [17] was 103 % of control. For the same compound, the T/C [12] was 95 % of control, the T/C [13] was 93 % of control and the T/C [14] was 90 % of control.
With `CC(=O)CC(=O)Nc1ccc(Cc2ccccc2)cc1` the T/C [6] was 93 % of control, the T/C [7] was 94 % of control and the T/C [8] was 109 % of control.
With `O=[N+]([O-])CC(O)C(F)(F)C(F)(F)C(F)(F)F` (stereo not drawn) the T/C [12] was 105 % of control, the T/C [13] was 100 % of control and the T/C [14] was 100 % of control.
